Measured values reported in PubChem BioAssay (NCI).
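Method: 48-hour compound exposure of cells in 96-well plates, five concentrations, linear interpolation of endpoints. GI50 is the concentration that inhibits growth by half. The concentration for full growth arrest is given as TGI.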

Tests used:
Experiment in all cases: NCI tumour cell line growth inhibition, 48 h
[1] = tested on: CAKI-1 renal
[2] = tested on: SK-MEL-5 melanoma
[3] = tested on: SN12C renal
[4] = tested on: SK-MEL-2 melanoma
[5] = tested on: COLO 205 colon
[6] = tested on: HOP-62 NSCLC
[7] = tested on: SK-OV-3 ovarian
[8] = tested on: SF-295 CNS
[9] = tested on: HCC-2998 colon
[10] = tested on: LOX IMVI melanoma

| Compound | GI50 [1] | TGI [1] | GI50 [2] | TGI [2] | GI50 [3] | TGI [3] | GI50 [4] | TGI [4] | GI50 [5] | TGI [5] | GI50 [6] | TGI [6] | GI50 [7] | TGI [7] | GI50 [8] | GI50 [9] | TGI [9] | GI50 [10] | TGI [10] | TGI [8] |
| --- | --- | --- | --- | --- | --- | --- | --- | --- | --- | --- | --- | --- | --- | --- | --- | --- | --- | --- | --- | --- |
| O=C1OCC2=C1C(c1ccccc1)c1cc3c(cc1N2CCO)OCCO3 (configuration not stated) | 0.293 µM | > 30.3 µM | 0.181 µM | 7.18 µM | 4.46 µM | > 50 µM | 0.156 µM | 0.432 µM | 0.24 µM | 0.978 µM | 0.763 µM | > 50 µM | 0.348 µM | 13.4 µM | 0.183 µM | 0.182 µM | 0.722 µM | 0.36 µM | > 50 µM |  |
| CN(C)C(=O)Oc1c(-c2ccccc2)c(=O)n2c3ccccc3n3c(=O)n(C)c(=O)c1c23 |  | > 100 µM |  | > 100 µM |  | > 100 µM |  | > 100 µM |  | > 100 µM |  | > 100 µM |  | > 100 µM |  |  | > 100 µM |  | > 100 µM | > 100 µM |
| CC(C)=CCCC(C)C1=C(O)C(=O)C(C)=CC1=O (configuration not stated) |  | 15.1 µM |  | 24.6 µM |  | 34.6 µM |  | 34 µM |  | 18.2 µM |  | 36.9 µM |  | 78.5 µM |  |  | 27.9 µM |  | 15.1 µM | > 100 µM |
| O=S1Nc2c(Cl)cc(Cl)c(Cl)c2S1 (configuration not stated) |  | > 100 µM |  | > 100 µM |  | > 100 µM |  | > 100 µM |  | > 100 µM |  | > 100 µM |  | > 100 µM |  |  | > 100 µM |  | > 100 µM | > 100 µM |
| CCN(CC)CCNC(=O)c1cccc2nc3ccccc3nc12 |  | > 100 µM |  | > 100 µM |  | > 100 µM |  | 28.2 µM |  | > 41.4 µM |  | 33.8 µM |  | > 100 µM |  |  | 52 µM |  | 29.5 µM | > 38.1 µM |
| O=C(c1ccccc1)c1c(C(F)(F)F)n([O-])c2ccc(C(F)(F)F)cc2[n+]1=O | 0.193 µM | 0.348 µM | 0.504 µM | 0.933 µM | 0.215 µM | 0.468 µM | 1.24 µM | 2.96 µM | 0.384 µM | 0.879 µM | 0.347 µM | 0.765 µM | 0.988 µM | 2.38 µM | 0.548 µM | 0.622 µM | 1.28 µM | 0.0513 µM | 0.0954 µM | 1.11 µM |
| CCN(Cc1c(Cl)cccc1Cl)c1ccc(CO)c(Cl)c1 | 4.23 µM | 21.9 µM | 2.86 µM | 19.5 µM | 11.7 µM | 24 µM | 0.795 µM | 13.4 µM | 2.41 µM | 11.7 µM | 2.15 µM | 21.2 µM | 9.84 µM | 22.3 µM |  | 12.3 µM | 27.6 µM | 16.9 µM | 32.6 µM | 1.37 µM |
| CCCCCCCCCCCCCCCCCC(=O)Nc1ccn(C2OC(CO)C(O)C2O)c(=O)n1 (configuration not stated) |  | > 100 µM |  | > 97.5 µM |  | > 100 µM |  | > 100 µM |  | > 100 µM |  | > 96.2 µM |  | > 100 µM |  |  | > 100 µM |  | 39.4 µM | > 100 µM |
| CCN(CC)c1ccc(/C=C/C=C2\NC(=O)NC2=O)cc1 | 2.65 µM | > 100 µM | 1.17 µM | 13.7 µM | 9.41 µM | > 100 µM | 3.5 µM | 53.6 µM | 3.22 µM | 16.2 µM | 3.64 µM | > 100 µM | 7.6 µM | > 100 µM | 1.54 µM | 2.44 µM | 29.1 µM | 7.15 µM | > 100 µM | > 100 µM |
| Cc1c([N+](=O)[O-])oc2ccc3ccccc3c12 |  | > 100 µM |  | > 100 µM |  | > 100 µM |  | > 100 µM |  | > 100 µM |  | > 100 µM |  | > 100 µM |  |  | > 100 µM |  | > 100 µM | > 100 µM |
| O=C(NC(=S)Nc1cc(Cl)ccc1O)c1cccc(Br)c1 | 4.34 µM | > 100 µM | 6.21 µM | > 100 µM | 12.5 µM | > 100 µM | 12.1 µM | > 100 µM | 34.1 µM | > 100 µM | 7.46 µM | > 100 µM | 19.4 µM | > 100 µM | 3.59 µM | 13.6 µM | > 100 µM | 15.8 µM | > 100 µM | 24.9 µM |
| Cc1cc(I)cc(CN(C)CCCN2CCN(C)CC2)c1O | 20.3 µM | 47.3 µM | 16.1 µM | 29.9 µM | > 94.8 µM | > 100 µM | 22.3 µM | 46.1 µM | 19.3 µM | 42 µM | 17 µM | 36.3 µM | 65.7 µM | > 100 µM | 18.5 µM | 24.7 µM | 56.8 µM | 17.2 µM | 36.1 µM | 39.6 µM |
| CC(=O)c1nc2ccccc2n1CC(=O)c1cccc(Cl)c1 | 2.78 µM | > 20.1 µM | 0.175 µM | 13.6 µM | 0.838 µM | > 100 µM | 0.505 µM | 98 µM | 16.1 µM | > 79.1 µM | 1.69 µM | > 56.5 µM | 1.27 µM | > 100 µM | 1.27 µM | 1.5 µM |  | 0.59 µM | > 100 µM | > 23.2 µM |
| O=C(O)c1cc2ccccc2c2c1C(=O)c1ccccc1-2 |  | > 100 µM |  | > 100 µM |  | > 100 µM |  | > 100 µM |  | > 100 µM |  | > 100 µM |  | > 100 µM |  |  | > 100 µM |  | > 100 µM | > 100 µM |
| COC(=O)C(C)NC(=O)c1ccccc1I(OS(=O)(=O)C(F)(F)F)c1ccccc1 (configuration not stated) | > 42.8 µM | > 62.5 µM | 13.2 µM | 26.5 µM | 15.4 µM | 32.4 µM | 41.6 µM | > 100 µM | 23.6 µM | 45.9 µM | 29.5 µM | 90.1 µM | 23.6 µM | 56.5 µM | > 44.7 µM | 14.7 µM | 32.3 µM | 22.5 µM | > 60.6 µM | > 63.6 µM |
| CC(=O)[CH-]C(C)=O.CC(=O)[CH-]C(C)=O.CC[O-].CC[O-].[Ti+4] | > 100 µM | > 100 µM | > 100 µM | > 100 µM | > 100 µM | > 100 µM | > 100 µM | > 100 µM | > 100 µM | > 100 µM | > 100 µM | > 100 µM | > 100 µM | > 100 µM | > 100 µM | > 100 µM | > 100 µM | > 100 µM | > 100 µM | > 100 µM |
